According to patent US8101159B2, “In vivo methods of identifying compounds which target suppressed cancer cells” (The Board of Regents of the University of Oklahoma, priority 2005, dated 2012):

How the values were obtained:
MDA-MB-468 cells = test: Complete dose response, cells in SISgel vs monolayers or Matrigel; format: cell-based; details: FIGS. 8A-8B
Method: (§1) Dose-response relations of lead compounds. To 100 μl media on cells was added 100 μl of a 2× (666.7 μM) stock of either doxorubicin, tetrandrine or o-cresolphthalein in completed media in a single column in a 96-well plate. 1:3 dilutions were made from this highest dose by removing 66.7 μl into the next column of cells containing 133 μl media. Cells were incubated with drug for 72 hours, then the CFDA-AM assay completed as described above.
(§2) Dose-response relations. Data were graphed as percent inhibition of proliferation as compared to untreated cells and from this EC50 values calculated using sigmoidal dose-response non-linear regression analysis (GraphPad Prism 4.0 software, San Diego, Calif.). Dose-response relation data were compared to one another using two-way ANOVA with Bonferroni post-test (GraphPad Prism 4.0 software, San Diego, Calif.).
(§3) SISgel (90 μl) is added to wells of a 96-well plate and allowed to gel. […] Examples of fluorometers which can be used include, but are not limited to, FLUOStar Optima plate reader (BMG Biotech), FL600 fluorescent plate reader (Bio-Tek Instruments), Victor2 plate reader (Wallac), FluoroCount BF10000 fluorescent microplate reader (Packard), CytoFluor® 4000 (Applied Biosystems), Bio-Tek Synergy, BMG FLUOstar Galaxy and OPTIMA, PerkinElmer Victor™, PerkinElmer HTS 7000, TECAN SpectraFluor Plus, Thermo LabSystems Fluoroskan Ascent, and the like. […]

[1] = tested on: J82 metastatic bladder cancer cells; test: In vivo flank xenograft, GFP-tagged cells co-injected with permissive Matrigel; details: nude mice; for activity against actively growing cells in vivo (fluorescence imaging): 35 mg/kg Monday, Wednesday and Friday from day 8
Method: (§4) Flank xenograft model. J82 cells stably expressing green fluorescent protein (GFP) were prepared as follows. pLEGFP-C1 retrovirus (Clontech, Mountain View, Calif.) was co-transfected with the pVSV-G vector (Clontech, Mountain View, Calif.) which contains a viral envelope gene into the packaging cell line GP2-293 (Clontech, Mountain View, Calif.). Supernatant from the packaging cells containing the infective virus was collected every 24 hours for 4 days. Fluorescent target cells were made by infecting J82s, a urothelial transitional cell carcinoma cell line (ATCC, Manassas, Va.), with 1 ml of fresh, virus containing, supernatant/well containing 100,000 target cells along with 8 μg/ml of polybrene (Sigma Aldrich, St. Louis, Mo.). Each application of viral supernatant was filtered through a 0.4 μM syringe filter before application to target cells. Supernatant was removed and fresh virus containing media replenished on target cells every 24 hours until 4 changes of media were completed. Virus containing media was replaced with Minimum Essential Media, MEM, (Life Technologies, Carlsbad, Calif.) containing 1% nonessential amino acids, 1% L-glutamine, 1% sodium pyruvate and 10% Fetal Calf Serum, and cells were allowed to grow to 90% confluence. Stable transfects were selected through sequential sorting and enrichment of fluorescent cells using flow cytometry.
In sterile 500 μl centrifuge tubes, placed on ice, 100 μl of cell suspension was mixed with either 100 μl ice-cold prepared SISgel or ice-cold Matrigel and mixed well. The mix was immediately injected into either the right or left flank of a 5-week old nude mouse, nu/nu-nuBR, (Charles River Laboratories, Wilmington, Mass.). Caliper measurements of tumor size were taken every week for the length of the study as were fluorescent images. […] The area and intensity of the tumor was measured using Adobe Photoshop by first selecting the tumor area, then counting pixels above a threshold selected to eliminate background, non-tumor areas. The integrated intensity was calculated by multiplying the average intensity of detected pixels by the number of pixels detected.
(§5) In this experiment, the activities of three compounds identified by the in vitro screening method were compared against both ECM-suppressed (SISgel, right) and actively growing (Matrigel, left) J82 metastatic bladder cancer cells. […] When tumors were first visible fluorescently (8 days after implantation), 35 mg/kg Bordeaux Red, tetrabromofluorescein, or Wool Violet 2R were injected Monday, Wednesday and Friday and tumor size was measured using fluorescence microscopy. A representative time course of fluorescence imaging is shown from a single animal for each treatment group. […]

[2] = tested on: J82 metastatic bladder cancer cells; test: In vivo flank xenograft, GFP-tagged cells co-injected with suppressive SISgel; details: nude mice, 35 mg/kg Monday, Wednesday and Friday from day 8
Method: as §4, with “Virus containing media was replaced with Minimum Essential Media, MEM, (Life Technologies, Carlsbad, Calif.) containing 1% nonessential amino acids, 1% L-glutamine, 1% sodium pyruvate and 10% Fetal Calf Serum, and cells were allowed to grow to 90% confluence. Stable transfects were selected through sequential sorting and enrichment of fluorescent cells using flow cytometry.” left out
In sterile 500 μl centrifuge tubes, placed on ice, 100 μl of cell suspension was mixed with either 100 μl ice-cold prepared SISgel or ice-cold Matrigel and mixed well. […] The area and intensity of the tumor was measured using Adobe Photoshop by first selecting the tumor area, then counting pixels above a threshold selected to eliminate background, non-tumor areas. The integrated intensity was calculated by multiplying the average intensity of detected pixels by the number of pixels detected.
as §5

suppressed cancer cells = test: Library screen and dose-response, cells on normal matrix vs cells on plastic; format: cell-based; details: FIGS. 3A, 3B, 6A-6C
Method: Screening of compounds. The National Cancer Institute Developmental Therapeutics Program (NCI DTP) diversity set of 1990 compounds1 was obtained by material transfer agreement and was diluted to a final concentration of 166.7 μM in serum-containing media and placed onto cells for 72 hours at 37° C. and 5% CO2. A marker of cell proliferation using the substrate 5-carboxyfluorescein diacetate acetoxymethyl ester (CFDA-AM) cleaved to fluorescein by non-specific cellular esterases was used. Briefly, media containing a final concentration of 5 μM CFDA-AM (Molecular Probes, Eugene, Oreg.) was added in PBS for two h at 37° C. Plates were then read by a FLUOstar Optima plate reader (BMG LABTECH, Durham, N.C.) using 385 nm excitation, 428 nm emission filter.
as §1
(§6) Drug screening. The percent inhibition of cell proliferation (as determined by CFDA-AM cleavage) as compared to untreated cells was calculated for each drug in the wells of plates. The ratio of percent inhibition of the same drug of cells grown on SISgel as compared to non-confluent monolayers also was calculated. All library compounds were screened twice for consistency.
as §2
SISgel (90 μl) is added to wells of a 96-well plate and allowed to gel. Cancer cells in 50 μl of nutrient (such as, for example, J82 bladder cancer cell, RT4 cancer cells, TCCSUP cancer cells, 5637 cancer cells, MDA-MB-468 breast cancer cells, or B16-F10 skin tumor (or any metastatic murine melanoma)) are added to each well and allowed to attach and grow. After 24 hours, the test compounds are added to wells at 10 μM concentration. The cells are allowed to grow in the presence of the test compound for 24 hours, at which time the number of cells (or survival or mortality) are estimated by a fluorometric method. In one embodiment, the fluorometric method is an assay performed using an esterase substrate, 5-carboxyfluorescein diacetate acetoxymethyl ester (CFDA) (available from Molecular Probes, Eugene, Oreg., USA), however, any suitable assay for measuring cell survival or mortality known by those of ordinary skill in the art may be used. Examples of fluorometers which can be used include, but are not limited to, FLUOStar Optima plate reader (BMG Biotech), FL600 fluorescent plate reader (Bio-Tek Instruments), Victor2 plate reader (Wallac), FluoroCount BF10000 fluorescent microplate reader (Packard), CytoFluor® 4000 (Applied Biosystems), Bio-Tek Synergy, BMG FLUOstar Galaxy and OPTIMA, PerkinElmer Victor™, PerkinElmer HTS 7000, TECAN SpectraFluor Plus, Thermo LabSystems Fluoroskan Ascent, and the like.
The cell number results are compared to those observed in cells grown conventionally on plastic in nearly confluent monolayers that show approximately the same growth rate as the cells on SISgel. […] In other embodiments, the ratio used may be, for example, less than two fold or greater than two fold as long as the cell number or survival on non-suppressing cell support matrix is greater than the number of cells on the suppressing cell support matrix. Preferably, each positive result is then confirmed by a full dose-response curve. […]

B16-F10 cells = test: Complete dose response, cells in SISgel vs monolayers or Matrigel; format: cell-based, murine; details: FIGS. 9A-9B
Method: as §1, §2, §3

J82 cells = test: Cell proliferation dose-response (CFDA-AM), cells on SISgel vs non-confluent monolayers; format: cell-based
Method: Plating of cells for screening. Three-dimensional gel cultures with Matrigel were made by layering 50 μl of ice cold Matrigel into wells of a Costar 3610 white, clear bottom 96-well plates (Corning, Corning, N.Y.) allowed to gel at 37° C. Confluent cells were trypsinized with 1 ml 0.25% trypsin −1 mM EDTA, and 30,000 were added to wells containing the gelled matrices. The cells were fed with 50 μl of their respective media containing 10% fetal calf serum. To establish non-confluent monolayers, cells were plated at a cell density of 10,000/well 24 hours prior to drug treatments.
Screening of compounds. […] Plates were then read by a FLUOstar Optima plate reader (BMG LABTECH, Durham, N.C.) using 385 nm excitation, 428 nm emission filter. […]
as §6, with “All library compounds were screened twice for consistency.” left out
Dose-response relations. Data were graphed as percent inhibition of proliferation as compared to untreated cells and from this EC50 values calculated using sigmoidal dose-response non-linear regression analysis (GraphPad Prism 4.0 software, San Diego, Calif.). […]

Row | Molecule | EC50 of cells grown in SISgel compared with monolayers or Matrigel (MDA-MB-468 cells) | rate of tumor growth in Matrigel treated animals compared with controls ([1]; 35 mg/kg) | activity against actively growing cells in vivo (fluorescence imaging) [1] | effect on ECM-suppressed cells in vivo (fluorescence imaging) [2] | sensitivity of cells on normal matrix compared with cells grown on plastic (suppressed cancer cells) | EC50 of cells grown in SISgel compared with monolayers or Matrigel (B16-F10 cells) | activity against cancer cells under suppressing conditions compared with non-suppressing cell culture (dose-response, FIG. 2) (J82 cells)
1 | O=C1OC2(c3ccc(O)cc3Oc3cc(O)ccc32)c2c(Br)c(Br)c(Br)c(Br)c21 [3,4,5,6-tetrabromofluorescein] | lower EC50 values | weak inhibition of tumor growth | none of the three compounds had any activity | caused disappearance of the cells | several fold increased sensitivity | lower EC50 values | –
2 | O=S(=O)([O-])c1ccc2c(N=Nc3cccc4ccccc34)c(O)c(S(=O)(=O)[O-])cc2c1.[Na+].[Na+] [Bordeaux Red] | lower EC50 values | – | none of the three compounds had any activity | caused disappearance of the cells | several fold increased sensitivity | lower EC50 values | –
3 | CC(C)=CCC(OC(=O)C=C(C)C)C1=CC(=O)c2c(O)ccc(O)c2C1=O (stereo not drawn) [NSC140377] | – | – | – | – | several fold increased sensitivity | – | –
4 | Cc1cc(C)c(NC(=O)/C=C/c2ccccc2)c(C)c1 [NSC 191384] | – | – | – | – | several fold increased sensitivity | – | more active against cancer cells grown under the suppressing conditions
5 | CC1=C(N2CC2)C(=O)C(CO)=C(N2CC2)C1=O [NSC 697726] | – | – | – | – | several fold increased sensitivity | – | –
6 | Wool Violet 2R | – | – | none of the three compounds had any activity | caused disappearance of the cells | several fold increased sensitivity | – | –
